In ChEMBL document CHEMBL5500380, “Recent discovery and development of AXL inhibitors as antitumor agents” (Eur J Med Chem, 2024) one finds IC50 and inhibition data, which are given here for eight compounds.

Test [1] addresses T1, Tyrosine-protein kinase receptor UFO (Homo sapiens, UniProt P30530).
T1 sequence (P30530 whole entry): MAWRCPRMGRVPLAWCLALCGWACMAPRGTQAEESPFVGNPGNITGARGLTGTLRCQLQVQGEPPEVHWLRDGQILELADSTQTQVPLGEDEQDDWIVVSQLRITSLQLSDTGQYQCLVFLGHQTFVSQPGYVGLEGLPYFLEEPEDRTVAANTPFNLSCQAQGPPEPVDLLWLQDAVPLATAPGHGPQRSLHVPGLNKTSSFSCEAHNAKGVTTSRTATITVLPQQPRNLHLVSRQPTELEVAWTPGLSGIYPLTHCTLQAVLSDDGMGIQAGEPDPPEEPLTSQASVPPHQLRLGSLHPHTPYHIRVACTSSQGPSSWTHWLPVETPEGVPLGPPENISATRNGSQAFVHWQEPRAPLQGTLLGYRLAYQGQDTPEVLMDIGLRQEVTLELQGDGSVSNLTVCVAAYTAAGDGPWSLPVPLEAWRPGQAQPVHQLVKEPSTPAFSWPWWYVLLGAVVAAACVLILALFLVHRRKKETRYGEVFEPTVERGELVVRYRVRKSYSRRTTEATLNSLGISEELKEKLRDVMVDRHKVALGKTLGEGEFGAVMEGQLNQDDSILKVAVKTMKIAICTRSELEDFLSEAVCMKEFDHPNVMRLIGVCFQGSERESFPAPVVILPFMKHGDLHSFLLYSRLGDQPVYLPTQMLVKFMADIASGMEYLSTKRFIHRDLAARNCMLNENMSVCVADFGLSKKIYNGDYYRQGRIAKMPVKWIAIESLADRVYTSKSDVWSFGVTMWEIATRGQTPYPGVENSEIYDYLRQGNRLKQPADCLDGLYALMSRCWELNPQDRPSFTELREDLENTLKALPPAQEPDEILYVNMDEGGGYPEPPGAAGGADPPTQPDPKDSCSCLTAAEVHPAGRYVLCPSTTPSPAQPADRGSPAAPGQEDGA
The experiment in a line: Inhibition of AXL (unknown origin).

The target of test [2] is Hepatocyte growth factor receptor (Homo sapiens) (UniProt P08581). Put plainly: Inhibition of c-MET (unknown origin) at 100 nM relative to control.
Chain of Hepatocyte growth factor receptor (Homo sapiens) (P08581 whole entry): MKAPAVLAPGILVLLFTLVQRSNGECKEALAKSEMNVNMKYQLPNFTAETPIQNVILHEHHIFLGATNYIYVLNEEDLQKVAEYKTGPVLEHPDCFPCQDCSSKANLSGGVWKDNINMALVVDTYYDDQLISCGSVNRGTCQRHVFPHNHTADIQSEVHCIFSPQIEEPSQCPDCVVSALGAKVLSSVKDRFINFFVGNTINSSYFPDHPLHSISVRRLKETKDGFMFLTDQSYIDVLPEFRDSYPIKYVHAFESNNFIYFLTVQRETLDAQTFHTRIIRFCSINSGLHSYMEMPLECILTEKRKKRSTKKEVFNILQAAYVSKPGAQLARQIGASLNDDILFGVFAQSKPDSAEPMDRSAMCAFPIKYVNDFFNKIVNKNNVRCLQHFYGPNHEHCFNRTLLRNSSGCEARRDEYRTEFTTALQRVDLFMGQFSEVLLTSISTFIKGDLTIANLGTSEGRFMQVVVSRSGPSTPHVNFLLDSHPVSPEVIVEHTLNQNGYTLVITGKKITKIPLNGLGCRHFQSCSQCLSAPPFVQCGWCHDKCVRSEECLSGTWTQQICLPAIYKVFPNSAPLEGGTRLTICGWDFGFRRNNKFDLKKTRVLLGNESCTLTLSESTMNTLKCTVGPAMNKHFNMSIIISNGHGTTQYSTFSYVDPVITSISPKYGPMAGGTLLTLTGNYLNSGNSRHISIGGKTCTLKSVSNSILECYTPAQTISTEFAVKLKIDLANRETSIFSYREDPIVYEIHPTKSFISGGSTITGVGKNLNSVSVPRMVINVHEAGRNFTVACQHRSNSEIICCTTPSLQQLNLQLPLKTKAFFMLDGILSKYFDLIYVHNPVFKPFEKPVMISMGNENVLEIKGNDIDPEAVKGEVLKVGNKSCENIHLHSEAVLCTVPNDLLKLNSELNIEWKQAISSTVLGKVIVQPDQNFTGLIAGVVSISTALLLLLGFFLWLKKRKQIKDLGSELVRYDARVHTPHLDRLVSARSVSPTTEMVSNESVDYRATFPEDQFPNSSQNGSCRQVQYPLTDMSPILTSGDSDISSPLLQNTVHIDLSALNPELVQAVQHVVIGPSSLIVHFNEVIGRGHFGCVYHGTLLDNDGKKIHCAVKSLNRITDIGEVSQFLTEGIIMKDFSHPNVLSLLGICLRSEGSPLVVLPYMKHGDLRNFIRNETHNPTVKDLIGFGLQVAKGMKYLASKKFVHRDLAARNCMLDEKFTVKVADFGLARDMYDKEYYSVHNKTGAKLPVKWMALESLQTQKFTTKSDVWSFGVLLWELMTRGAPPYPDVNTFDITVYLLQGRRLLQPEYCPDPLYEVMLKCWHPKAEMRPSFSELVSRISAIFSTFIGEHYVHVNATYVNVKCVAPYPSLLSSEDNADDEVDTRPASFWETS
Test [3] deals with T2, Tyrosine-protein kinase Mer (Homo sapiens) (UniProt Q12866).
T2 sequence (whole entry): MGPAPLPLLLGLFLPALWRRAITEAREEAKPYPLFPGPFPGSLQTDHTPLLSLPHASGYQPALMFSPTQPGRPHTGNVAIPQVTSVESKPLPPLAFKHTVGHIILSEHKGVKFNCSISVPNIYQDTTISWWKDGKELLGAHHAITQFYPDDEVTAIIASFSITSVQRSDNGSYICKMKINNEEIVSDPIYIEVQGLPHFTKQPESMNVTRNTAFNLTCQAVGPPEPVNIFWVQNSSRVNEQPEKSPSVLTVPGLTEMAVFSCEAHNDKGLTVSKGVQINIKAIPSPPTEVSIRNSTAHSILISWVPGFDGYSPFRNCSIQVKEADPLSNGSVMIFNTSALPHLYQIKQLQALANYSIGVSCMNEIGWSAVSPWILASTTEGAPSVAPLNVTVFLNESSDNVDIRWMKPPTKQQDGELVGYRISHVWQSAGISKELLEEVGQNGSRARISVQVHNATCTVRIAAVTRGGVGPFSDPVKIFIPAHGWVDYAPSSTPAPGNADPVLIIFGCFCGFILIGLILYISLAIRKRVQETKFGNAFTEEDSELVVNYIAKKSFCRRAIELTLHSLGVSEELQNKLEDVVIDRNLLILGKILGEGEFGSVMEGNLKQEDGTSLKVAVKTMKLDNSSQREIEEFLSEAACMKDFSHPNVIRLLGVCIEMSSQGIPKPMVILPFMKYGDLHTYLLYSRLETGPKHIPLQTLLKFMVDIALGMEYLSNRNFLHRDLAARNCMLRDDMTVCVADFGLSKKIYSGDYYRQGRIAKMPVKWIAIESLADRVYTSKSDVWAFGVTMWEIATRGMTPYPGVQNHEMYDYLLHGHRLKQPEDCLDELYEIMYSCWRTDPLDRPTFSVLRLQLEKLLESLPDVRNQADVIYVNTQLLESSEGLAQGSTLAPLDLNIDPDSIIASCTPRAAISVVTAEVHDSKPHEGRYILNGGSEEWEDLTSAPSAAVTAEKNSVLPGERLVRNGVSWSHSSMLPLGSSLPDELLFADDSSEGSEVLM
Put plainly: Inhibition of MER (unknown origin) at 100 nM relative to control.

Test [4] concerns the target T3, Tyrosine-protein kinase receptor TYRO3 (Homo sapiens) (UniProt Q06418).
T3 sequence (whole entry): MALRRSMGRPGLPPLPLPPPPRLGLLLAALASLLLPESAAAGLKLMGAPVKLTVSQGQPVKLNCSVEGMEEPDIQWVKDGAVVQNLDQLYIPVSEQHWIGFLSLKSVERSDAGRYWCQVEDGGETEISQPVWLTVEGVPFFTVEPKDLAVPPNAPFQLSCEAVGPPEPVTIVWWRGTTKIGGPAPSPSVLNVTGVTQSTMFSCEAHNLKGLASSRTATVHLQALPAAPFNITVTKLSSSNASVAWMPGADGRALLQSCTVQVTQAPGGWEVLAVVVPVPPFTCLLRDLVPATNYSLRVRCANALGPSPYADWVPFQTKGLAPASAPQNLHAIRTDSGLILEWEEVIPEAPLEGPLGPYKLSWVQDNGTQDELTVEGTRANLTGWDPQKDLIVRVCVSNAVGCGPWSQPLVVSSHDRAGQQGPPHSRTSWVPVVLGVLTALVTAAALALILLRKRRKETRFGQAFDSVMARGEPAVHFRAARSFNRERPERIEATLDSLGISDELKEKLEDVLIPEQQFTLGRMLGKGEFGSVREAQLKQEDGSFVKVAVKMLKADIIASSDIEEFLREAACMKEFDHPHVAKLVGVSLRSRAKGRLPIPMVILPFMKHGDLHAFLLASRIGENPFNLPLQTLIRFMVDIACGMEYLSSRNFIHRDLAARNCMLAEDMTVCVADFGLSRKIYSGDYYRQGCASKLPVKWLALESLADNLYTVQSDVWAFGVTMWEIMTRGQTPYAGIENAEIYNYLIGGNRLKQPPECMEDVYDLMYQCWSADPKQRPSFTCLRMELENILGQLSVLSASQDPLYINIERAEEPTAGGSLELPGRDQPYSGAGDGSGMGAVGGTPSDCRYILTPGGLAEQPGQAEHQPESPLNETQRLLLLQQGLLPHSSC
The experiment in a line: Inhibition of TYRO3 (unknown origin) at 100 nM relative to control.

Test [5] concerns the target T1, Tyrosine-protein kinase receptor UFO. The experiment in a line: Inhibition of AXL (unknown origin) by HTRF kinase assay. Background: In TR-FRET formats the signal depends on donor and acceptor labels being close together.
The next test has as its target T4, Aurora kinase A (Homo sapiens, UniProt O14965).
T4 sequence (O14965 whole entry): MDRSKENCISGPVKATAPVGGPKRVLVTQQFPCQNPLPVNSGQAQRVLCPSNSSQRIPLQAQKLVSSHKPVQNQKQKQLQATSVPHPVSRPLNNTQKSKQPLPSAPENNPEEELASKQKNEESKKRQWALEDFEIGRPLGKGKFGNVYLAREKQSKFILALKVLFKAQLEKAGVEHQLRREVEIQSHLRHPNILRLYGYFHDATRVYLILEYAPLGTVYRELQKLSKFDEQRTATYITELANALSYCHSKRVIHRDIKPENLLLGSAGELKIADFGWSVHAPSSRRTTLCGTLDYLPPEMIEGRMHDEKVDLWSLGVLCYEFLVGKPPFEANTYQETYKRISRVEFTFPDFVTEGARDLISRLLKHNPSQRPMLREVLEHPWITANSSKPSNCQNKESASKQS
The experiment in a line: Inhibition of AURORA-A (unknown origin).

The target in the next test is Aurora kinase B (Homo sapiens, UniProt Q96GD4). Put plainly: Inhibition of AURORA-B (unknown origin).
Chain of Aurora kinase B (Q96GD4 whole entry, the tested form may be a part): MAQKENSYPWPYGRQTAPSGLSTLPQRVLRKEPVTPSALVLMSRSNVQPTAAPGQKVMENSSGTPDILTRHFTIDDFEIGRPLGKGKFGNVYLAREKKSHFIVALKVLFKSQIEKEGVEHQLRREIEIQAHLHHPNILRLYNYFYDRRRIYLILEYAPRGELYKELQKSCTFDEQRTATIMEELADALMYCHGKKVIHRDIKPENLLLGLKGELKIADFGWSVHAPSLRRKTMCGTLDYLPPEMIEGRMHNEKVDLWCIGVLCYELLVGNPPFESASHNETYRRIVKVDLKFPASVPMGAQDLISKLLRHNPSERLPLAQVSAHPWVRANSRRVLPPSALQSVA
The target in test [6] is Epithelial discoidin domain-containing receptor 1 (Homo sapiens, UniProt Q08345). Put plainly: Inhibition of DDR1 (unknown origin).
Chain of Epithelial discoidin domain-containing receptor 1 (Q08345 whole entry, the tested form may be a part): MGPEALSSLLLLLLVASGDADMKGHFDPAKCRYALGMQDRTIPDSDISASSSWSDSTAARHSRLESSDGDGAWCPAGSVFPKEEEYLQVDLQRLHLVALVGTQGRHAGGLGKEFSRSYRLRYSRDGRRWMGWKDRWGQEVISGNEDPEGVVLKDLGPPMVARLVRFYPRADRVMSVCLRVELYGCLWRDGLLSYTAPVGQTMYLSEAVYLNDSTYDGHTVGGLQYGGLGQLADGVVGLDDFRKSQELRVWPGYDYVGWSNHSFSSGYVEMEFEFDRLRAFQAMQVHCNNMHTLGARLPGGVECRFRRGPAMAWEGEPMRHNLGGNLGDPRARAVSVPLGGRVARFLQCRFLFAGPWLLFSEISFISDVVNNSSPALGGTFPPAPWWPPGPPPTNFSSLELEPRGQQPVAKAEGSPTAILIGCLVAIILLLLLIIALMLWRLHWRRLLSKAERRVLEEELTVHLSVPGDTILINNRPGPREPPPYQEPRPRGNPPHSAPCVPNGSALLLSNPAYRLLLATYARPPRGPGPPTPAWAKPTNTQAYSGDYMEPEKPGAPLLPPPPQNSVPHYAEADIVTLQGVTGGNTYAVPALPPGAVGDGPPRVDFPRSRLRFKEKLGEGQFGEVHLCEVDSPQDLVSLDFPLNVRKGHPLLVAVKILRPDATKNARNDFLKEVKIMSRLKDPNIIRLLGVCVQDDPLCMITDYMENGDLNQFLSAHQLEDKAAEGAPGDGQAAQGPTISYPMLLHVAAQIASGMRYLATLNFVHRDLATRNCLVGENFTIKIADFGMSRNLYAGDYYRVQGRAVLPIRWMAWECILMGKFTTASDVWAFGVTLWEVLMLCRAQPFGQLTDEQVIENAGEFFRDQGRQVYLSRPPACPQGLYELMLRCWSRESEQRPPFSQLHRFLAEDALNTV

For `CN1CCc2ccc(Nc3ncc(Cl)c(Nc4ccccc4S(=O)(=O)N(C)C)n3)cc2C1`, in test [1], the IC50 (as a rule, the concentration at which inhibition is half-maximal) was 2600 nM.

In turn, `Nn1cc(-c2n[nH]c3cc(Cl)c(NC4CCNC4)cc23)cn1` (centres undefined) came in with an IC50 in test [1] of 19 nM. Still for that read-out and setting: as for `COc1cc2ncnc(Oc3ccc(NC(=O)c4c5n(n(-c6cccc(F)c6)c4=O)CCCC5)cc3F)c2cc1OC`, the figure is 5.9 nM.

For `COc1cc2nccc(Oc3ccc(NC(=O)c4c5n(n(-c6ccc(F)cc6)c4=O)CCCC5)cc3F)c2cc1OC`, the figures for the inhibition in test [2], in test [3] and in test [4] were 98%, 100% and 71%, respectively. This compound had a 50% inhibitory concentration (IC50) in test [1] of 3.5 nM. Consider `O=C(Nc1ccc(Oc2ccnc3c2CCN3)c(F)c1)c1c[nH]cc(-c2ccc(F)cc2)c1=O`, for which, in test [1], half-maximal inhibition (IC50) required 9 nM.

`COc1cc2nccc(Oc3ccc(NC(=O)c4c5n(n(-c6cc(F)ccc6F)c4=O)CCCC5)cc3F)c2cc1OC` came in with an IC50 in test [1] of 1.2 nM.

Turning to `COc1cc2nccc(Oc3ccc(NC(=O)c4cc5c(n(-c6ccccc6)c4=O)CCCC5=O)nc3)c2cc1OC` [TAMNORZATINIB], 0.7 nM corresponded to half-maximal inhibition in test [5] (IC50). In the case of `CCc1ccc2c(c1)c(=O)c(C(=O)Nc1ccc(Oc3ccnc4cc(OC)c(OC)cc34)c(F)c1)c(C)n2C`, the concentration for half-maximal inhibition (IC50) on Aurora kinase A was 192 nM; on Aurora kinase B, 114 nM; in test [6], 22.2 nM; in test [1], 4 nM.
